IC50 data for one compound are collected here from ChEMBL document CHEMBL3886420, “Substituted pyrimidine compounds and their use as SYK inhibitors” (2015).

pIC50: −log10 of the molar value.

This experiment deals with Tyrosine-protein kinase SYK (Homo sapiens, UniProt P43405). As to the kind of experiment: Inhibition Assay: Compounds of the invention were initially diluted to 10 mM in 100% DMSO (CALBIOCHEM) for storage and made into kinase buffer solution to create a compound concentration ranging from 1 uM and 10 uM. Serial dilutions of compounds of the invention were dispensed into a 96-well plate (GREINER BIOSCIENCES) at 6 uL each. Purified full-length human SYK (CARNA BIOSCIENCES) were diluted ….

The pIC50 is −log10 of the IC50, conventionally taken in molar units. Regarding `CCOC(=O)n1cc(C(C)=O)c2cc(Nc3nccc(-n4cc(CN5C[C@H](O)CO5)c(C)n4)n3)ccc21`, the pIC50 is 7.34.
